Assay results taken from patent US20240158446A1, “CYCLIC COMPOUND HAVING SELECTIVE INHIBITORY ACTION ON KRAS OVER HRAS AND NRAS” (CHUGAI SEIYAKU KABUSHIKI KAISHA, priority 2021, published 2024).
Where two headings read alike, the source gives them in different places. Where a SMILES comes first, the peptide text is derived from it. Bridges are numbered along the chain shown (N, C = ends). [ ]: non-standard residue; d: D form. The star is where a group is joined. hPhe(3-Cl-4-CF3) = N[C@@H](CCc1ccc(C(F)(F)F)c(Cl)c1)C(=O)O; NPrPhe(4-CF3) = CCCN[C@@H](Cc1ccc(C(F)(F)F)cc1)C(=O)O; NMeGly(cPent) = CN[C@H](C(=O)O)C1CCCC1; NMeD = CN[C@@H](CC(=O)O)C(=O)O; NMeL = CN[C@@H](CC(C)C)C(=O)O; Morpholide = C1CN(*)CCO1; Ac5c = NC1(C(=O)O)CCCC1; Sar = CNCC(=O)O

What was measured:
[1] = target: GDP-bound KRAS wild-type protein (Homo sapiens, UniProt P01116); assay: Binding to KRAS by surface plasmon resonance (SPR), Single Cycle Kinetics; details: GDP-bound KRAS wild-type protein, read-out: KRAS KD
[2] = target: GDP-bound NRAS wild-type protein (Homo sapiens, UniProt P01111); assay: Binding to NRAS by surface plasmon resonance (SPR), Single Cycle Kinetics; details: for NRAS/KRAS (ratio of KD value for NRAS to KD value for KRAS): SPR, GDP-bound NRAS wild-type protein vs GDP-bound KRAS wild-type protein
[3] = test system: human lung cancer strain NCI-H441;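 note: cell proliferation inhibition after four days measured by CellTiter-Glo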
[4] = target: GDP-bound HRAS wild-type protein (Homo sapiens, UniProt P01112); assay: Binding to HRAS by surface plasmon resonance (SPR), Single Cycle Kinetics; details: for HRAS/KRAS (ratio of KD value for HRAS to KD value for KRAS): SPR, GDP-bound HRAS wild-type protein vs GDP-bound KRAS wild-type protein
[5] = SPR, Single Cycle Kinetics, 1:1 binding model
[6] = SPR Single Cycle Kinetics, 1:1 binding model

GDP-bound NRAS wild-type protein, sequence (P01111 whole entry): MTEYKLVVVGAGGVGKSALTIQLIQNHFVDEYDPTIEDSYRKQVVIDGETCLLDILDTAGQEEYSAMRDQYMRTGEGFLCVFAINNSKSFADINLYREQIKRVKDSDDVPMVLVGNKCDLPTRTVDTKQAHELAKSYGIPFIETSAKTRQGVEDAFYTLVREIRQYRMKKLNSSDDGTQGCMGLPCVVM
GDP-bound KRAS wild-type protein, sequence (P01116 whole entry): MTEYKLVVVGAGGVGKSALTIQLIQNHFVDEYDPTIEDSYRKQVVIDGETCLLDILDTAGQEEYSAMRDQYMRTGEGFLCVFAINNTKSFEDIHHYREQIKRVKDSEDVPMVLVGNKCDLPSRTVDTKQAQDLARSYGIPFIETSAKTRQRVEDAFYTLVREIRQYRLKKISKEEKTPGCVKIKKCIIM
GDP-bound HRAS wild-type protein, sequence (P01112 whole entry): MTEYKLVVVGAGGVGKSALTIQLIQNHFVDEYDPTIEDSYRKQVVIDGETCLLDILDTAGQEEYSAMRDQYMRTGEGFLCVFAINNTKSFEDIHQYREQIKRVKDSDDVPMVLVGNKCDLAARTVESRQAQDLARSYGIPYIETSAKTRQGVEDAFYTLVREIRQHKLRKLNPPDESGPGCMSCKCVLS

Kd ([1]; SPR, Single Cycle Kinetics) [nM] | IC50 [3] [nM] | Kd [1, 5] [nM] | Kd [1, 6] [nM] | Compound | NRAS/KRAS (ratio of KD value for NRAS to KD value for KRAS) [2] | HRAS/KRAS (ratio of KD value for HRAS to KD value for KRAS) [4] | NRAS/KRAS (ratio of KD value for NRAS to KD value for KRAS) ([2]; KD ratio class) | HRAS/KRAS (ratio of KD value for HRAS to KD value for KRAS) ([4]; KD ratio class) | NRAS/KRAS (ratio of KD value with respect to GDP-bound NRAS wild-type protein to KD value with respect to KRAS) ([2]; SPR KD ratio NRAS/KRAS, class symbols) | HRAS/KRAS (ratio of KD value with respect to GDP-bound HRAS wild-type protein to KD value with respect to KRAS) ([4]; SPR KD ratio HRAS/KRAS, class symbols)
0.19 | 244 |  |  | CC[C@H](C)[C@@H]1NC(=O)[C@H](CC)N(C)C(=O)C[C@@H](C(=O)N(C)C)N(C)C(=O)[C@H](C2CCCC2)N(C)C(=O)C2(CCC2)NC(=O)[C@@H]2COCCN2C(=O)[C@H](CCc2cc(F)c(C(F)(F)F)c(F)c2)NC(=O)CN(C)C(=O)[C@H](Cc2ccc(C(F)(F)F)cc2)N2CC/C=C\C[C@@H](C2=O)N(C)C(=O)CN(C)C1=O [PP1138] | A (a compound having 10 or more and less than 20 is denoted as A) | A (a compound having 10 or more and less than 20 is denoted as A) |  |  |  | 
 | 32 | 0.2 |  | CCO[C@@H]1C[C@H]2C(=O)NC3(CCC3)C(=O)N(C)[C@@H](C3CCCC3)C(=O)N(C)[C@H](C(=O)N(C)C)CC(=O)N(C)[C@@H](CC3CC3)C(=O)N[C@@H]([C@@H](C)CC)C(=O)N(C)CC(=O)N(C)[C@H]3C/C=C\CCN(C3=O)[C@@H](CC3CCCCC3)C(=O)N(C)CC(=O)N[C@@H](CCc3cc(F)c(C(F)(F)F)c(F)c3)C(=O)N2C1 [PP1446] |  |  | A (a compound having 10 or more and less than 20 is denoted as A) | A (a compound having 10 or more and less than 20 is denoted as A) |  | 
 | 42.6 | 0.2 |  | CCO[C@@H]1C[C@H]2C(=O)NC3(CCC3)C(=O)N(C)[C@@H](C3CCCC3)C(=O)N(C)[C@H](C(=O)N3CCOCC3)CC(=O)N(C)[C@@H](CC3CC3)C(=O)N[C@@H]([C@@H](C)CC)C(=O)N(C)CC(=O)N(C)[C@H]3C/C=C\CCN(C3=O)[C@@H](Cc3ccc(C(F)(F)F)cc3)C(=O)N(C)CC(=O)N[C@@H](CCc3cc(F)c(C(F)(F)F)c(F)c3)C(=O)N2C1 [PP1283] |  |  | AA (a compound having 20 or more is denoted as AA) | A (a compound having 10 or more and less than 20 is denoted as A) |  | 
 | 15.2 |  | 0.2 | CCCN1C(=O)CN(C)C(=O)CN(C)C(=O)[C@H]([C@@H](C)CC)NC(=O)[C@H](CC(C)C)N(C)C(=O)C[C@@H](C(=O)N2CCOCC2)N(C)C(=O)[C@H](C2CCCC2)N(C)C(=O)C2(CCCC2)NC(=O)CN(C)C(=O)[C@H](CCc2ccc(C(F)(F)F)c(Cl)c2)NC(=O)CN(C)C(=O)[C@@H]1Cc1ccc(C(F)(F)F)cc1 [PP0266] ([NMeL]I[Sar][Sar][NPrPhe(4-CF3)][Sar][hPhe(3-Cl-4-CF3)][Sar][Ac5c][NMeGly(cPent)][NMeD]-Morpholide; lactam N-11) | B (a compound having 3 or more and less than 10 is denoted as B) | C (A compound having a KD ratio of 0.1 or more and less than 3 is denoted as C) |  |  |  | 
1 | 91.4 |  |  | CC[C@H](C)[C@@H]1NC(=O)[C@H](CC(C)C)N(C)C(=O)C[C@@H](C(=O)N(C)CC)N(C)C(=O)[C@H](C2CCCC2)N(C)C(=O)C2(CC(C)(C)C2)NC(=O)[C@@H]2C[C@H](C)CN2C(=O)[C@H](CCc2cc(F)c(C(F)(F)F)c(F)c2)NC(=O)CN(C)C(=O)[C@H](Cc2ccc(C)cc2)N2CC/C=C\C[C@@H](C2=O)N(C)C(=O)[C@@H]2CCCN2C1=O [PP2411] | A (a compound having 10 or more and less than 20 is denoted as A) | A (a compound having 10 or more and less than 20 is denoted as A) |  |  |  | 
 | 34.8 | 0.71 |  | CC[C@H](C)[C@@H]1NC(=O)[C@H](CC2CCC2)N(C)C(=O)C[C@@H](C(=O)N2CCOCC2)N(C)C(=O)[C@H](C2CCCC2)N(C)C(=O)C2(CCC2)NC(=O)[C@@H]2CCCN2C(=O)[C@H](CCc2ccc(C(F)(F)F)c(Cl)c2)NC(=O)CN(C)C(=O)[C@H](Cc2ccc(C(F)(F)F)cc2)N2C[C@H](C)CC[C@@H](C2=O)N(C)C(=O)[C@@H]2CCN2C1=O [PP1345] |  |  | A (a compound having 10 or more and less than 20 is denoted as A) | B (a compound having 3 or more and less than 10 is denoted as B) |  | 
 | 3.8 | 0.17 |  | CCO[C@@H]1C[C@H]2C(=O)NC3(CCC3)C(=O)N(C)[C@@H](C3CCCC3)C(=O)N(C)[C@H](C(=O)N3CCCC3)CC(=O)N(C)[C@@H](CC(C)C)C(=O)N[C@@H]([C@@H](C)CC)C(=O)N(C)CC(=O)N(C)[C@H]3C/C=C\CCN(C3=O)[C@@H](Cc3ccc(C)cc3)C(=O)N(C)CC(=O)N[C@@H](CCc3cc(F)c(C(F)(F)F)c(F)c3)C(=O)N2C1 [PP1416] |  |  | A (a compound having 10 or more and less than 20 is denoted as A) | A (a compound having 10 or more and less than 20 is denoted as A) |  | 
 | 54.8 | 0.12 |  | CCO[C@@H]1C[C@H]2C(=O)NC3(CCC3)C(=O)N(C)[C@@H](C3CCCC3)C(=O)N(C)[C@H](C(=O)N3CCOCC3)CC(=O)N(C)[C@@H](C)C(=O)N[C@@H]([C@@H](C)CC)C(=O)N(C)CC(=O)N(C)[C@H]3C/C=C\CCN(C3=O)[C@@H](Cc3ccc(C(F)(F)F)cc3)C(=O)N(C)CC(=O)N[C@@H](CCc3cc(F)c(C(F)(F)F)c(F)c3)C(=O)N2C1 [PP1284] |  |  | AA (a compound having 20 or more is denoted as AA) | A (a compound having 10 or more and less than 20 is denoted as A) |  | 
 | 108 |  | 2.3 | CCO[C@@H]1C[C@H]2C(=O)NC3(CC(C)(C)C3)C(=O)N(C)[C@@H](C3CCCC3)C(=O)N(C)[C@H](C(=O)N(C)C)CC(=O)N(C)[C@@H](COC)C(=O)N[C@@H]([C@@H](C)CC)C(=O)N(C3CC3)CC(=O)N(C)[C@H]3C/C=C\CCN(C3=O)[C@@H](CC3CCCCC3)C(=O)N(C)CC(=O)N[C@@H](CCc3ccc(Cl)c(Cl)c3)C(=O)N2C1 [PP2563] |  |  |  |  | A (a compound having 10 or more and less than 20 is denoted as A) | A (a compound having 10 or more and less than 20 is denoted as A)
0.16 | 26.3 |  |  | CCO[C@@H]1C[C@H]2C(=O)NC3(CCC3)C(=O)N(C)[C@@H](C3CCCC3)C(=O)N(C)[C@H](C(=O)N3CCOCC3)CC(=O)N(C)[C@@H](CC3CC3)C(=O)N[C@@H]([C@@H](C)CC)C(=O)N(C)CC(=O)N(C)[C@H]3CCCCCN(C3=O)[C@@H](Cc3ccc(F)cc3)C(=O)N(C)CC(=O)N[C@@H](CCc3cc(F)c(C(F)(F)F)c(F)c3)C(=O)N2C1 [PP1178] | B (a compound having 3 or more and less than 10 is denoted as B) | B (a compound having 3 or more and less than 10 is denoted as B) |  |  |  | 

Compound | Kd ([1]; SPR, Single Cycle Kinetics) [nM] | IC50 [3] [nM] | Kd [1, 5] [nM] | Kd [1, 6] [nM] | NRAS/KRAS (ratio of KD value for NRAS to KD value for KRAS) [2] | HRAS/KRAS (ratio of KD value for HRAS to KD value for KRAS) [4] | NRAS/KRAS (ratio of KD value for NRAS to KD value for KRAS) ([2]; KD ratio class) | HRAS/KRAS (ratio of KD value for HRAS to KD value for KRAS) ([4]; KD ratio class) | NRAS/KRAS (ratio of KD value with respect to GDP-bound NRAS wild-type protein to KD value with respect to KRAS) ([2]; SPR KD ratio NRAS/KRAS, class symbols) | HRAS/KRAS (ratio of KD value with respect to GDP-bound HRAS wild-type protein to KD value with respect to KRAS) ([4]; SPR KD ratio HRAS/KRAS, class symbols)
CCO[C@@H]1C[C@H]2C(=O)NC3(CCC3)C(=O)N(C)[C@@H](C3CCCC3)C(=O)N(C)[C@H](C(=O)N3CCCCC3)CC(=O)N(C)[C@@H](CC3CC3)C(=O)N[C@@H]([C@@H](C)CC)C(=O)N(C)CC(=O)N(C)[C@H]3C/C=C\CCN(C3=O)[C@@H](Cc3ccc(C(F)(F)F)cc3)C(=O)N(C)CC(=O)N[C@@H](CCc3cc(F)c(C(F)(F)F)c(F)c3)C(=O)N2C1 [PP1291] |  | 16.7 | 0.24 |  |  |  | A (a compound having 10 or more and less than 20 is denoted as A) | A (a compound having 10 or more and less than 20 is denoted as A) |  | 
